# In the supplement of paper PMC10307832:
# Columns and labels:
# Test in all cases: relative viability (nuclei count vs DMSO), 5 days (fraction); higher = more cells survive
# NCI-H3122 = tested on: NCI-H3122
# Summary of the method: (§1)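 Lung cancer cell lines were pin-tool dosed in 1536-well plates on the day after seeding, with either a lone drug or a fixed anchor-drug dose plus five library-drug doses (not always all listed) in √10 steps. Nuclei were counted on 4× images after 5 days. Relative viability is the ratio of treated-well to vehicle-well nuclei counts, with each value a median of duplicate plates.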
# COR-L 105 = tested on: COR-L 105
# Summary of the method: as §1
# ABC-1 = tested on: ABC-1
# Summary of the method: as §1
# NCI-H2126 = tested on: NCI-H2126
# Summary of the method: as §1
# NCI-H2085 = tested on: NCI-H2085
# Summary of the method: as §1
# HOP-62 = tested on: HOP-62
# Summary of the method: as §1
# EMC-BAC-2 = tested on: EMC-BAC-2
# Summary of the method: as §1
# NCI-H358 = tested on: NCI-H358
# Summary of the method: as §1
# EPLC-272H = tested on: EPLC-272H
# Summary of the method: as §1
# NCI-H1915 = tested on: NCI-H1915
# Summary of the method: as §1
# NCI-H1755 = tested on: NCI-H1755
# Summary of the method: as §1
# NCI-H322M = tested on: NCI-H322M
# Summary of the method: as §1
# HCC-15 = tested on: HCC-15
# Summary of the method: as §1
# ChaGo-K-1 = tested on: ChaGo-K-1
# Summary of the method: as §1
# NCI-H1666 = tested on: NCI-H1666
# Summary of the method: as §1
# NCI-H1975 = tested on: NCI-H1975
# Summary of the method: as §1
# NCI-H2023 = tested on: NCI-H2023
# Summary of the method: as §1
# NCI-H441 = tested on: NCI-H441
# Summary of the method: as §1
# CAL-12T = tested on: CAL-12T
# Summary of the method: as §1
# LXF-289 = tested on: LXF-289
# Summary of the method: as §1
# UMC-11 = tested on: UMC-11
# Summary of the method: as §1
# HCC-78 = tested on: HCC-78
# Summary of the method: as §1
smiles,measurement,setting,value
Cc1sc2c(c1C)C(c1ccc(Cl)cc1)=N[C@@H](CC(=O)OC(C)(C)C)c1nnc(C)n1-2 [JQ1] + COc1cccc2cc(-c3nc([C@H]4CC[C@H](C(=O)O)CC4)n4ncnc(N)c34)[nH]c12 [OSI-027] (partner 0.5 µM),relative viability,NCI-H3122; first compound 0.04 µM,0.898
same,relative viability,NCI-H3122; first compound 0.4 µM,0.784
same,relative viability,NCI-H3122; first compound 1.265 µM,0.392
same,relative viability,NCI-H3122; first compound 4 µM,0.264
same,relative viability,COR-L 105; first compound 0.04 µM,0.608
same,relative viability,COR-L 105; first compound 0.1265 µM,0.336
same,relative viability,COR-L 105; first compound 0.4 µM,0.297
same,relative viability,COR-L 105; first compound 1.265 µM,0.207
same,relative viability,COR-L 105; first compound 4 µM,0.248
same,relative viability,ABC-1; first compound 0.04 µM,0.452
same,relative viability,ABC-1; first compound 0.1265 µM,0.352
same,relative viability,ABC-1; first compound 0.4 µM,0.322
same,relative viability,ABC-1; first compound 1.265 µM,0.187
same,relative viability,ABC-1; first compound 4 µM,0.212
same,relative viability,NCI-H2126; first compound 0.04 µM,0.712
same,relative viability,NCI-H2126; first compound 0.1265 µM,0.72
same,relative viability,NCI-H2126; first compound 0.4 µM,0.739
same,relative viability,NCI-H2126; first compound 1.265 µM,0.552
same,relative viability,NCI-H2126; first compound 4 µM,0.431
same,relative viability,NCI-H2085; first compound 0.04 µM,0.763
same,relative viability,NCI-H2085; first compound 0.1265 µM,0.519
same,relative viability,NCI-H2085; first compound 0.4 µM,0.574
same,relative viability,NCI-H2085; first compound 1.265 µM,0.368
same,relative viability,NCI-H2085; first compound 4 µM,0.323
same,relative viability,HOP-62; first compound 0.04 µM,0.826
same,relative viability,HOP-62; first compound 0.1265 µM,0.613
same,relative viability,HOP-62; first compound 0.4 µM,0.45
same,relative viability,HOP-62; first compound 1.265 µM,0.189
same,relative viability,HOP-62; first compound 4 µM,0.149
same,relative viability,EMC-BAC-2; first compound 0.04 µM,0.405
same,relative viability,EMC-BAC-2; first compound 0.1265 µM,0.286
same,relative viability,EMC-BAC-2; first compound 0.4 µM,0.301
same,relative viability,EMC-BAC-2; first compound 1.265 µM,0.189
same,relative viability,EMC-BAC-2; first compound 4 µM,0.224
same,relative viability,NCI-H358; first compound 0.04 µM,0.705
same,relative viability,NCI-H358; first compound 0.1265 µM,0.796
same,relative viability,NCI-H358; first compound 0.4 µM,0.748
same,relative viability,NCI-H358; first compound 1.265 µM,0.47
same,relative viability,NCI-H358; first compound 4 µM,0.461
same,relative viability,EPLC-272H; first compound 0.04 µM,0.26
same,relative viability,EPLC-272H; first compound 0.1265 µM,0.336
same,relative viability,EPLC-272H; first compound 0.4 µM,0.275
same,relative viability,EPLC-272H; first compound 1.265 µM,0.237
same,relative viability,EPLC-272H; first compound 4 µM,0.248
same,relative viability,NCI-H1915; first compound 0.04 µM,0.609
same,relative viability,NCI-H1915; first compound 0.1265 µM,0.602
same,relative viability,NCI-H1915; first compound 0.4 µM,0.59
same,relative viability,NCI-H1915; first compound 1.265 µM,0.263
same,relative viability,NCI-H1915; first compound 4 µM,0.217
same,relative viability,NCI-H1755; first compound 0.04 µM,0.758
same,relative viability,NCI-H1755; first compound 0.1265 µM,0.68
same,relative viability,NCI-H1755; first compound 0.4 µM,0.668
same,relative viability,NCI-H1755; first compound 1.265 µM,0.527
same,relative viability,NCI-H1755; first compound 4 µM,0.39
same,relative viability,NCI-H322M; first compound 0.04 µM,0.518
same,relative viability,NCI-H322M; first compound 0.1265 µM,0.589
same,relative viability,NCI-H322M; first compound 0.4 µM,0.477
same,relative viability,NCI-H322M; first compound 1.265 µM,0.321
same,relative viability,NCI-H322M; first compound 4 µM,0.339
same,relative viability,HCC-15; first compound 0.04 µM,0.693
same,relative viability,HCC-15; first compound 0.4 µM,0.593
same,relative viability,HCC-15; first compound 1.265 µM,0.347
same,relative viability,HCC-15; first compound 4 µM,0.315
same,relative viability,ChaGo-K-1; first compound 0.04 µM,0.564
same,relative viability,ChaGo-K-1; first compound 0.1265 µM,0.519
same,relative viability,ChaGo-K-1; first compound 0.4 µM,0.472
same,relative viability,ChaGo-K-1; first compound 1.265 µM,0.345
same,relative viability,ChaGo-K-1; first compound 4 µM,0.28
same,relative viability,NCI-H1666; first compound 0.04 µM,0.761
same,relative viability,NCI-H1666; first compound 0.1265 µM,0.901
same,relative viability,NCI-H1666; first compound 0.4 µM,0.726
same,relative viability,NCI-H1666; first compound 1.265 µM,0.581
same,relative viability,NCI-H1666; first compound 4 µM,0.789
same,relative viability,NCI-H1975; first compound 0.04 µM,0.708
same,relative viability,NCI-H1975; first compound 0.1265 µM,0.527
same,relative viability,NCI-H1975; first compound 0.4 µM,0.62
same,relative viability,NCI-H1975; first compound 1.265 µM,0.437
same,relative viability,NCI-H1975; first compound 4 µM,0.393
same,relative viability,NCI-H2023; first compound 0.04 µM,0.362
same,relative viability,NCI-H2023; first compound 0.1265 µM,0.377
same,relative viability,NCI-H2023; first compound 0.4 µM,0.262
same,relative viability,NCI-H2023; first compound 1.265 µM,0.142
same,relative viability,NCI-H2023; first compound 4 µM,0.148
same,relative viability,NCI-H441; first compound 0.04 µM,0.718
same,relative viability,NCI-H441; first compound 0.1265 µM,0.583
same,relative viability,NCI-H441; first compound 0.4 µM,0.705
same,relative viability,NCI-H441; first compound 1.265 µM,0.392
same,relative viability,NCI-H441; first compound 4 µM,0.334
same,relative viability,CAL-12T; first compound 0.04 µM,0.618
same,relative viability,CAL-12T; first compound 0.1265 µM,0.586
same,relative viability,CAL-12T; first compound 0.4 µM,0.32
same,relative viability,CAL-12T; first compound 1.265 µM,0.192
same,relative viability,CAL-12T; first compound 4 µM,0.173
same,relative viability,LXF-289; first compound 0.04 µM,0.803
same,relative viability,LXF-289; first compound 0.1265 µM,0.695
same,relative viability,LXF-289; first compound 0.4 µM,0.614
same,relative viability,LXF-289; first compound 1.265 µM,0.297
same,relative viability,LXF-289; first compound 4 µM,0.173
same,relative viability,UMC-11; first compound 0.04 µM,0.396
same,relative viability,UMC-11; first compound 0.1265 µM,0.399
same,relative viability,UMC-11; first compound 0.4 µM,0.258
same,relative viability,UMC-11; first compound 1.265 µM,0.192
same,relative viability,UMC-11; first compound 4 µM,0.182
same,relative viability,HCC-78; first compound 0.04 µM,0.389
same,relative viability,HCC-78; first compound 0.1265 µM,0.47
same,relative viability,HCC-78; first compound 0.4 µM,0.387
same,relative viability,HCC-78; first compound 1.265 µM,0.335
same,relative viability,HCC-78; first compound 4 µM,0.296
